Data published in PMC11365428 (The Journal of Biological Chemistry, 2024).
Non-standard residues stand in square brackets, D forms with d. Residues, ends and D or L forms follow the SMILES beside them. pGlu = O=C1CC[C@@H](C(=O)O)N1

Key:
apTKRPR-A T376 = apTKRPR-A T376 (Aplysia californica, UniProt A0AAU7SSZ1, DEL377-398); experiment: IP1 accumulation assay, C-terminal truncate apTKRPR-A T376; format: cell-based
Protocol: To express putative Aplysia receptors transiently in CHO-K1 cells, the cDNAs were subcloned into the pcDNA3.1(+) or pcDNA3.1(+)-FLAG (for ELISA experiments only, see “Cell surface expression analysis by ELISA” section) expression vector. On the day before transfection, the CHO-K1 cells were passaged into 60 mm diameter tissue culture–treated dishes, and the transfection experiments were performed when the cells were grown to 70 to 90% confluence. CHO-K1 cells were transfected with the cDNA plasmid constructs using Turbofect Transfection reagent (Thermo Fisher Scientific, R0531), following the manufacturer’s instructions. In brief, 4 μg of the putative receptor plasmids [in pcDNA3.1(+) or pcDNA3.1(+)-FLAG] were mixed with 400 μl of Opti-MEM (Gibco, 11058021), followed by the addition of 15 μl of TurboFect Transfection reagent and incubated at room temperature for 15 min. […]
The next day, transfected cells were trypsinized and reseeded in an opaque white 96-well half-area (Corning, 3688) or 384-well tissue culture–treated plates (Corning, 3570) at a density of 20,000 cells/well in F-12K and 10% FBS and incubated at 37 °C in a humidified incubator containing 5% CO2 overnight. On the third day, the activation of the putative receptors was detected by monitoring intracellular IP1 concentration using an IP-One Gq kit (Cisbio, 62IPAPEB) in Tecan Spark. […]

[1] = tested on: putative neuropeptide FF receptor (apNPFFR); experiment: IP1 accumulation assay, CHO-K1 cells transiently expressing putative neuropeptide FF receptor; format: cell-based, Aplysia californica; details: 10^-5 M compared with 10^-10 M (control); n = 3; no Gαq cotransfection
Protocol: To express putative Aplysia receptors transiently in CHO-K1 cells, the cDNAs were subcloned into the pcDNA3.1(+) or pcDNA3.1(+)-FLAG (for ELISA experiments only, see “Cell surface expression analysis by ELISA” section) expression vector. On the day before transfection, the CHO-K1 cells were passaged into 60 mm diameter tissue culture–treated dishes, and the transfection experiments were performed when the cells were grown to 70 to 90% confluence. CHO-K1 cells were transfected with the cDNA plasmid constructs using Turbofect Transfection reagent (Thermo Fisher Scientific, R0531), following the manufacturer’s instructions. In brief, 4 μg of the putative receptor plasmids [in pcDNA3.1(+) or pcDNA3.1(+)-FLAG] were mixed with 400 μl of Opti-MEM (Gibco, 11058021), followed by the addition of 15 μl of TurboFect Transfection reagent and incubated at room temperature for 15 min. The DNA/TurboFect mixture dropwise was then added to the dish, and the cells were incubated at 37 °C in a humidified incubator containing 5% CO2 overnight.
The next day, transfected cells were trypsinized and reseeded in an opaque white 96-well half-area (Corning, 3688) or 384-well tissue culture–treated plates (Corning, 3570) at a density of 20,000 cells/well in F-12K and 10% FBS and incubated at 37 °C in a humidified incubator containing 5% CO2 overnight. On the third day, the activation of the putative receptors was detected by monitoring intracellular IP1 concentration using an IP-One Gq kit (Cisbio, 62IPAPEB) in Tecan Spark. Except for using 0.5x reagent, all other procedures were performed following the manufacturer’s instructions. IP1 accumulation assay measures the accumulation of IP1, which is hydrolyzed from the second messenger, and inositol triphosphate. Inositol triphosphate is generated by the Gαq pathway when a GPCR is activated by an appropriate ligand.

apTKRPR-A = target: T1, apTKRPR-A (Aplysia californica, UniProt A0AAU7SSZ1); experiment: IP1 accumulation assay, CHO-K1 cells transiently expressing apTKRPR-A; format: cell-based
T1 sequence (A0AAU7SSZ1 1-398): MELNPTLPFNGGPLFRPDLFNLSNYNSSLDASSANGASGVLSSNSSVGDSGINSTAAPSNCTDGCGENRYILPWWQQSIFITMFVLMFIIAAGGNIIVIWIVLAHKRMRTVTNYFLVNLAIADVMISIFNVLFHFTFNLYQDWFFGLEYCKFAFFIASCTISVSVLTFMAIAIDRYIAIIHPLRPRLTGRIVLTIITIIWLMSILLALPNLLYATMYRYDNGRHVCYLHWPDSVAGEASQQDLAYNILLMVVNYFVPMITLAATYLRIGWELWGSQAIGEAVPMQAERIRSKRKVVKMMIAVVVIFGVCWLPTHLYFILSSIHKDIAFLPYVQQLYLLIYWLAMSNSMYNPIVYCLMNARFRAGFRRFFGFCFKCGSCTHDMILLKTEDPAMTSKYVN
Protocol: To express putative Aplysia receptors transiently in CHO-K1 cells, the cDNAs were subcloned into the pcDNA3.1(+) or pcDNA3.1(+)-FLAG (for ELISA experiments only, see “Cell surface expression analysis by ELISA” section) expression vector. On the day before transfection, the CHO-K1 cells were passaged into 60 mm diameter tissue culture–treated dishes, and the transfection experiments were performed when the cells were grown to 70 to 90% confluence. CHO-K1 cells were transfected with the cDNA plasmid constructs using Turbofect Transfection reagent (Thermo Fisher Scientific, R0531), following the manufacturer’s instructions. […] The DNA/TurboFect mixture dropwise was then added to the dish, and the cells were incubated at 37 °C in a humidified incubator containing 5% CO2 overnight.
On the third day, the activation of the putative receptors was detected by monitoring intracellular IP1 concentration using an IP-One Gq kit (Cisbio, 62IPAPEB) in Tecan Spark. Except for using 0.5x reagent, all other procedures were performed following the manufacturer’s instructions. IP1 accumulation assay measures the accumulation of IP1, which is hydrolyzed from the second messenger, and inositol triphosphate. Inositol triphosphate is generated by the Gαq pathway when a GPCR is activated by an appropriate ligand.

CC(C)C[C@H](NC(=O)[C@H](Cc1c[nH]cn1)NC(=O)[C@@H]1CCCN1C(=O)[C@@H]1CCC(=O)N1)C(=O)NCC(=O)N[C@@H](Cc1ccccc1)C(=O)N[C@@H](Cc1c[nH]cn1)C(=O)NCC(=O)N[C@@H](CO)C(=O)N[C@@H](CCCNC(=N)N)C(N)=O [apTKRP-2b] ([pGlu]PHLGFHGSR-NH2)
EC50 (apTKRPR-A T376): 18.2 nM
IP1 response of putative apNPFFR in screening [1]: did not respond
EC50 (apTKRPR-A): 37.2 nM
IP1 response of apTKRPR-A in screening (apTKRPR-A; 10^-5 M compared with 10^-10 M (control), n = 3, no Gαq cotransfection): responded
